From BigSolDB 2.1

COc1cc(Cl)c(OC)cc1N
Details	solubility (mole fraction)
in 1-methoxy-2-propanol, 277.4 K	0.0208
in 1-methoxy-2-propanol, 281.6 K	0.0267
in 1-methoxy-2-propanol, 289.4 K	0.0327
in 1-methoxy-2-propanol, 294.3 K	0.0369
in 1-methoxy-2-propanol, 298.5 K	0.045
in 1-methoxy-2-propanol, 302.6 K	0.0536
in 1-methoxy-2-propanol, 307.6 K	0.0649
in 1-methoxy-2-propanol, 312.6 K	0.0772
in 1-methoxy-2-propanol, 316.8 K	0.089
in 1-methoxy-2-propanol, 320.9 K	0.101
in 1-methoxy-2-propanol, 326.3 K	0.125
in 2-ethoxyethanol, 278.6 K	0.0282
in 2-ethoxyethanol, 283.5 K	0.0322
in 2-ethoxyethanol, 287.6 K	0.0361
in 2-ethoxyethanol, 291.7 K	0.04
in 2-ethoxyethanol, 295.8 K	0.0453
in 2-ethoxyethanol, 300.3 K	0.0559
in 2-ethoxyethanol, 306.7 K	0.0672
in 2-ethoxyethanol, 310.9 K	0.0785
in 2-ethoxyethanol, 315 K	0.0894
in 2-ethoxyethanol, 319.7 K	0.1
in 2-ethoxyethanol, 323.9 K	0.117
in 2-ethoxyethanol, 328 K	0.138
in 2-methoxyethanol, 277.2 K	0.0282
in 2-methoxyethanol, 281.1 K	0.034
in 2-methoxyethanol, 285.5 K	0.0427
in 2-methoxyethanol, 291.2 K	0.0497
in 2-methoxyethanol, 295.3 K	0.0549
in 2-methoxyethanol, 299.4 K	0.06
in 2-methoxyethanol, 303.6 K	0.0665
in 2-methoxyethanol, 307.7 K	0.0768
in 2-methoxyethanol, 312.1 K	0.0884
in 2-methoxyethanol, 315.7 K	0.0986
in 2-methoxyethanol, 319.6 K	0.112
in 2-methoxyethanol, 324.2 K	0.129
in diethylene glycol, 276.7 K	0.0167
in diethylene glycol, 280.9 K	0.0188
in diethylene glycol, 285.1 K	0.021
in diethylene glycol, 289.4 K	0.0233
in diethylene glycol, 295.5 K	0.0279
in diethylene glycol, 299.6 K	0.0312
in diethylene glycol, 303.8 K	0.0346
in diethylene glycol, 307.9 K	0.0396
in diethylene glycol, 312 K	0.0447
in diethylene glycol, 316.5 K	0.0512
in diethylene glycol, 320.8 K	0.0584
in diethylene glycol, 325.3 K	0.0675

COc1ccc(OC)c(N)c1
Details	solubility (mole fraction)
in 1-methoxy-2-propanol, 276.6 K	0.0204
in 1-methoxy-2-propanol, 279.7 K	0.0255
in 1-methoxy-2-propanol, 282.8 K	0.0306
in 1-methoxy-2-propanol, 285.9 K	0.0382
in 1-methoxy-2-propanol, 289 K	0.0512
in 1-methoxy-2-propanol, 292.1 K	0.0675
in 1-methoxy-2-propanol, 295.2 K	0.0867
in 1-methoxy-2-propanol, 298.3 K	0.11
in 1-methoxy-2-propanol, 301.6 K	0.14
in 1-methoxy-2-propanol, 305.1 K	0.174
in 1-methoxy-2-propanol, 310.4 K	0.211
in 1-methoxy-2-propanol, 314.7 K	0.239
in 1-methoxy-2-propanol, 318.8 K	0.281
in 1-methoxy-2-propanol, 322.9 K	0.323
in 2-ethoxyethanol, 276.7 K	0.0186
in 2-ethoxyethanol, 279.8 K	0.0238
in 2-ethoxyethanol, 282.9 K	0.029
in 2-ethoxyethanol, 286 K	0.0369
in 2-ethoxyethanol, 289.1 K	0.0481
in 2-ethoxyethanol, 292.2 K	0.0635
in 2-ethoxyethanol, 295.3 K	0.0834
in 2-ethoxyethanol, 298.4 K	0.106
in 2-ethoxyethanol, 301.6 K	0.135
in 2-ethoxyethanol, 304.7 K	0.165
in 2-ethoxyethanol, 308.9 K	0.199
in 2-ethoxyethanol, 313 K	0.231
in 2-ethoxyethanol, 317.1 K	0.262
in 2-ethoxyethanol, 321.4 K	0.311
in 2-ethoxyethanol, 325.5 K	0.371
in 2-methoxyethanol, 276.4 K	0.0331
in 2-methoxyethanol, 280.5 K	0.046
in 2-methoxyethanol, 284.6 K	0.0617
in 2-methoxyethanol, 288.7 K	0.0819
in 2-methoxyethanol, 292.8 K	0.102
in 2-methoxyethanol, 296.9 K	0.123
in 2-methoxyethanol, 301 K	0.15
in 2-methoxyethanol, 305.1 K	0.185
in 2-methoxyethanol, 309.2 K	0.217
in 2-methoxyethanol, 313.4 K	0.254
in 2-methoxyethanol, 316.6 K	0.292
in diethylene glycol, 276.7 K	0.00015
in diethylene glycol, 280.9 K	0.000379
in diethylene glycol, 285 K	0.000611
in diethylene glycol, 289.1 K	0.000885
in diethylene glycol, 293.2 K	0.00119
in diethylene glycol, 297.3 K	0.00165
in diethylene glycol, 301.4 K	0.00325
in diethylene glycol, 303.5 K	0.00532
in diethylene glycol, 305.6 K	0.00751
in diethylene glycol, 307.7 K	0.015
in diethylene glycol, 309.8 K	0.0248
in diethylene glycol, 311.9 K	0.0458
in diethylene glycol, 314 K	0.0704
in diethylene glycol, 316.1 K	0.104
in diethylene glycol, 318.2 K	0.14
in diethylene glycol, 320.7 K	0.177
in diethylene glycol, 323.7 K	0.216

COc1cc([N+](=O)[O-])c(OC)cc1Cl
Details	solubility (mole fraction)
in 1-methoxy-2-propanol, 282.2 K	0.00313
in 1-methoxy-2-propanol, 287.1 K	0.00354
in 1-methoxy-2-propanol, 291.6 K	0.00392
in 1-methoxy-2-propanol, 296 K	0.00428
in 1-methoxy-2-propanol, 300.3 K	0.00466
in 1-methoxy-2-propanol, 304.6 K	0.00648
in 1-methoxy-2-propanol, 309 K	0.00937
in 1-methoxy-2-propanol, 313.1 K	0.0123
in 1-methoxy-2-propanol, 317.2 K	0.0154
in 1-methoxy-2-propanol, 321.3 K	0.0191
in 1-methoxy-2-propanol, 325.7 K	0.0258
in 2-ethoxyethanol, 276.7 K	0.00187
in 2-ethoxyethanol, 280.8 K	0.00226
in 2-ethoxyethanol, 284.9 K	0.00266
in 2-ethoxyethanol, 289.1 K	0.00307
in 2-ethoxyethanol, 293.2 K	0.00347
in 2-ethoxyethanol, 297.3 K	0.00389
in 2-ethoxyethanol, 301.4 K	0.00502
in 2-ethoxyethanol, 305.5 K	0.00638
in 2-ethoxyethanol, 309.6 K	0.00874
in 2-ethoxyethanol, 314 K	0.0139
in 2-ethoxyethanol, 320.6 K	0.0193
in 2-ethoxyethanol, 327.1 K	0.0237
in 2-methoxyethanol, 283.2 K	0.00622
in 2-methoxyethanol, 290.9 K	0.00838
in 2-methoxyethanol, 295.3 K	0.00953
in 2-methoxyethanol, 299.4 K	0.0107
in 2-methoxyethanol, 303.1 K	0.0119
in 2-methoxyethanol, 306.8 K	0.0146
in 2-methoxyethanol, 313 K	0.0177
in 2-methoxyethanol, 317.9 K	0.0201
in 2-methoxyethanol, 321.7 K	0.0226
in 2-methoxyethanol, 325.8 K	0.0282
in 2-methoxyethanol, 329.8 K	0.0335
in diethylene glycol, 282.1 K	0.000239
in diethylene glycol, 286.5 K	0.000275
in diethylene glycol, 290.8 K	0.000321
in diethylene glycol, 296.1 K	0.000364
in diethylene glycol, 301.6 K	0.000402
in diethylene glycol, 306.2 K	0.00048
in diethylene glycol, 310.7 K	0.000573
in diethylene glycol, 315.2 K	0.000717
in diethylene glycol, 319.5 K	0.000876
in diethylene glycol, 323.6 K	0.00109
in diethylene glycol, 327.7 K	0.00136
